Legend:
[1] = molecular target: T1, 3-oxo-5-alpha-steroid 4-dehydrogenase 2 (Homo sapiens, UniProt P31213); experiment: Compound was tested for inhibitory activity against human prostatic Steroid 5-alpha-reductase; details: read-out: Ki app
T1 sequence (P31213 whole entry): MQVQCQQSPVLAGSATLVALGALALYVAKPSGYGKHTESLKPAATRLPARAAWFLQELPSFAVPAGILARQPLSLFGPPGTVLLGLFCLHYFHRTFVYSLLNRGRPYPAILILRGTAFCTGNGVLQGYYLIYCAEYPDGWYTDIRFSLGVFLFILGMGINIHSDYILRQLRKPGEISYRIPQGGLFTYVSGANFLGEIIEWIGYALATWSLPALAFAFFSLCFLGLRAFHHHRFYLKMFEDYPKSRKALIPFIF

[2] = Compound was tested for in vitro inhibitory activity against cynomolgus monkey Steroid 5-alpha-reductase; parameters: species or system Cercopithecidae
[3] = molecular target: T1, 3-oxo-5-alpha-steroid 4-dehydrogenase 2; experiment: Compound was tested for inhibitory activity against human prostatic Steroid 5-alpha-reductase at 5 uM concentration; NS - No significant inhibition.

Compound `CC(C)N(C(=O)[C@H]1CC[C@H]2[C@@H]3CCc4cc(C(=O)O)ccc4[C@H]3CC[C@]12C)C(C)C` has a Ki [1] of 0.02 µM.

`CC(C)N(C(=O)[C@H]1CCC2C3CC[C@H]4C=C([N+](=O)[O-])CC[C@]4(C)C3CC[C@@]21C)C(C)C` (stereo partly specified) gave a Ki [2] of under 0.001 µM and a Ki [1] of 0.05 µM.

Work on `CC(C)N(C(=O)[C@H]1CCC2C3CC=C4C=C(C(=O)O)CC[C@]4(C)C3CC[C@@]21C)C(C)C` (stereo partly specified) yielded a Ki [2] of 0.004 µM.

`CC(C)N(C(=O)[C@H]1CCC2C3CC=C4C=C([N+](=O)[O-])CC[C@]4(C)C3CC[C@@]21C)C(C)C` (stereo partly specified) showed a Ki [1] of 0.59 µM.

For `CC(C)N(C(=O)[C@H]1CC[C@H]2[C@@H]3CCc4cc([N+](=O)[O-])ccc4[C@H]3CC[C@]12C)C(C)C`, the Ki app [3] was “Not Active”.

Reference: ChEMBL document CHEMBL1125939, “Inhibition of steroid 5-reductase by 3-nitrosteroids: synthesis, mechanism of inhibition, and in vivo activity” (Bioorg Med Chem Lett, 1991)
